Assay results taken from patent US5698411A, “Method for determining activity of enzymes in metabolically active whole cells” (priority 1995, dated 1997).
“And” between values parts separate entries of the source, which are not always exact repeats. Identical values can stand only once.

How the values were obtained:
Type in all cases: cell-based, human
[1] = tested on: lymphocytes; test: peptidase activity in leukemia and non-leukemia patients, lymphocytes (Table 6C); parameters: unit not given here
Source text: (§1) Artificial intelligence was used to analyze data of cellular enzyme functions, and determine normal and disease states. Peptidases were used to distinguish leukemia from non-leukemia (output pattern). For input patterns lymphocyte and granulocyte cell types were used with aminopeptidases, cathepsins and dipeptidylpeptidase enzyme activities. In this Example, illustrated in Tables 6A-6C, three normals and three leukemia patients were used as known output patterns for the neural network to learn (in practice, the larger the learning set the more accurate unknown prediction will be). Unknowns were then presented to the learned algorithm as shown in the test case examples. Clinical diagnosis was confirmed by physicians. The trained neural network was able to correctly classify the leukemia from the non-leukemia.

[2] = tested on: granulocytes; test: peptidase activity in leukemia and non-leukemia patients, granulocytes (Table 6C); parameters: unit not given here
Source text: as §1

[3] = tested on: metabolically active whole cell; test: substrate panel in normals and HIV + patients, TB infection (Table 4); parameters: unit not given here
Method: A panel of assay compounds are assembled consisting of Ala-aminopeptidase and Lys-aminopeptidase, Dipeptidyl peptidase IV (Ala-Ala)2 rhodamine 110 and Cathepsin D to indicate possible TB infection in AIDS related cases.
A panel Of enzymatic substrates is performed consisting of Ala-aminopeptidase and Lys-aminopeptidase, Dipeptidyl peptidase IV (Ala-Ala)2 rhodamine 110 and Cathepsin D to indicate possible TB infection in AIDS related cases.

[4] = tested on: granulocytes; test: aberrant enzyme activities in febrile children, granulocytes (Table 7)
[5] = tested on: lymphocytes; test: aberrant enzyme activities in febrile children, lymphocytes (Table 7)
[6] = tested on: monocytes; test: aberrant enzyme activities in febrile children, monocytes (Table 7)

`NCCCC[C@H](N)C(=O)Nc1ccc2c(c1)Oc1cc(NC(=O)[C@@H](N)CCCCN)ccc1C21OC(=O)c2ccccc21` [LYS, (H-L-Lys)2 Rho 110 .4TFA] was tested, and the “enzyme activity, Lymphs” value ([1]; J4 11/21/91 acute leuk.) was 0.77, the “enzyme activity, Lymphs” value ([1]; J19 11/27/91 C L L) was 0.98 and the “enzyme activity, Lymphs” value ([1]; J22 12/2/91 A M L) was 0.74. For the same compound, the “enzyme activity, Lymphs” value ([1]; J22 12/9/91 A M L) was 1.20, the “enzyme activity, Lymphs” value ([1]; N192 normal) was 0.56 and the “enzyme activity, Lymphs” value ([1]; N193 normal) was 0.52. The “enzyme activity, Lymphs” value ([1]; N194 normal) was 0.93, the “enzyme activity, Lymphs” value ([1]; N197 normal) was 0.70 and the “enzyme activity, Lymphs” value ([1]; N199 normal) was 0.33. The “enzyme activity, Lymphs” value ([1]; N200 normal) was 0.90, the “enzyme activity, Lymphs” value ([1]; N202 normal) was 0.71 and the “enzyme activity, Lymphs” value ([1]; P71 ac. pyelonephritis) was 0.91. For the same compound, the “enzyme activity, Grans” value ([2]; J22 12/9/91 A M L) was 1.90, the “enzyme activity, Grans” value ([2]; N191 normal) was 1.20 and the “enzyme activity, Grans” value ([2]; N192 normal) was 1.20. For the same compound, the “enzyme activity, Grans” value ([2]; N199 normal) was 0.95, the “MEAN DELTA FL” value ([3]; HIV + PATIENTS) was 7.4 and the “MEAN DELTA FL” value ([3]; NORMALS) was 10.5. For the same compound, the “aberrant enzyme activity, GRANS” value ([4]; P103 Viral Syndrome) was “.smallcircle”, the “aberrant enzyme activity, LYMPHS” value ([5]; P92 Adenitis) was “.smallcircle” and the “aberrant enzyme activity, LYMPHS” value ([5]; P97 Pyelonephritis) was “.smallcircle”. For the same compound, the “aberrant enzyme activity, LYMPHS” value ([5]; P103 Viral Syndrome) was “.smallcircle” and the “aberrant enzyme activity, MONOS” value ([6]; P97 Pyelonephritis) was “.smallcircle”.

`NC(=O)CC[C@H](N)C(=O)N[C@@H](CO)C(=O)Nc1ccc2c(c1)Oc1cc(NC(=O)[C@H](CO)NC(=O)[C@@H](N)CCC(N)=O)ccc1C21OC(=O)c2ccccc21` [QS, (H-L-Gln--Ser)2 Rho 110 .2TFA] was tested, and the “enzyme activity, Lymphs” value ([1]; J4 11/21/91 acute leuk.) was 0.05, the “enzyme activity, Lymphs” value ([1]; J4 12/2/91 A L) was 0.01 and the “enzyme activity, Lymphs” value ([1]; J4 12/3/91 acute leuk.) was 0.06. For the same compound, the “enzyme activity, Lymphs” value ([1]; J5 11/27/91 A M L) was 0.07, the “enzyme activity, Lymphs” value ([1]; J19 11/27/91 C L L) was 0.06 and the “enzyme activity, Lymphs” value ([1]; J22 12/2/91 A M L) was 0.02. The “enzyme activity, Lymphs” value ([1]; J22 12/9/91 A M L) was 0.02, the “enzyme activity, Lymphs” value ([1]; N191 normal) was 0.02 and the “enzyme activity, Lymphs” value ([1]; N192 normal) was 0.03. For the same compound, the “enzyme activity, Lymphs” value ([1]; N193 normal) was 0.03, the “enzyme activity, Lymphs” value ([1]; N194 normal) was 0.02 and the “enzyme activity, Lymphs” value ([1]; N195 normal) was 0.04. The “enzyme activity, Lymphs” value ([1]; N197 normal) was 0.06, the “enzyme activity, Lymphs” value ([1]; N199 normal) was 0.02 and the “enzyme activity, Lymphs” value ([1]; N200 normal) was 0.01. The “enzyme activity, Lymphs” value ([1]; N201 normal) was 0.02, the “enzyme activity, Lymphs” value ([1]; N202 normal) was 0.01 and the “enzyme activity, Lymphs” value ([1]; N206 normal) was 0.04. The “enzyme activity, Lymphs” value ([1]; P68 tachycardia) was 0.02, the “enzyme activity, Lymphs” value ([1]; P69 pancreatic CA) was 0.31 and the “enzyme activity, Lymphs” value ([1]; P70 cirrhosis/hemobilia) was 0.04. The “enzyme activity, Lymphs” value ([1]; P71 ac. pyelonephritis) was 0.05, the “enzyme activity, Grans” value ([2]; J4 11/21/91 acute leuk.) was 0.22 and the “enzyme activity, Grans” value ([2]; J4 12/2/91 A L) was 0.44. For the same compound, the “enzyme activity, Grans” value ([2]; J4 12/3/91 acute leuk.) was 0.19, the “enzyme activity, Grans” value ([2]; J22 12/2/91 A M L) was 0.10 and the “enzyme activity, Grans” value ([2]; J22 12/9/91 A M L) was 0.24. For the same compound, the “enzyme activity, Grans” value ([2]; N191 normal) was 0.19, the “enzyme activity, Grans” value ([2]; N192 normal) was 0.15 and the “enzyme activity, Grans” value ([2]; N193 normal) was 0.14. For the same compound, the “enzyme activity, Grans” value ([2]; N194 normal) was 0.07, the “enzyme activity, Grans” value ([2]; N195 normal) was 0.21 and the “enzyme activity, Grans” value ([2]; N197 normal) was 0.24. For the same compound, the “enzyme activity, Grans” value ([2]; N199 normal) was 0.05, the “enzyme activity, Grans” value ([2]; N200 normal) was 0.06 and the “enzyme activity, Grans” value ([2]; N201 normal) was 0.09. The “enzyme activity, Grans” value ([2]; N202 normal) was 0.08, the “enzyme activity, Grans” value ([2]; N206 normal) was 0.27 and the “enzyme activity, Grans” value ([2]; P68 tachycardia) was 0.33. For the same compound, the “enzyme activity, Grans” value ([2]; P69 pancreatic CA) was 0.37, the “enzyme activity, Grans” value ([2]; P70 cirrhosis/hemobilia) was 0.19 and the “enzyme activity, Grans” value ([2]; P71 ac. pyelonephritis) was 0.51. The “aberrant enzyme activity, GRANS” value ([4]; P97 Pyelonephritis) was “.smallcircle”, the “aberrant enzyme activity, LYMPHS” value ([5]; P92 Adenitis) was “.smallcircle” and the “aberrant enzyme activity, LYMPHS” value ([5]; P97 Pyelonephritis) was “.smallcircle”. The “aberrant enzyme activity, LYMPHS” value ([5]; P103 Viral Syndrome) was “.smallcircle”, the “aberrant enzyme activity, MONOS” value ([6]; P92 Adenitis) was “.smallcircle” and the “aberrant enzyme activity, MONOS” value ([6]; P97 Pyelonephritis) was “.smallcircle”.

`NC(=O)CC[C@H](N)C(=O)N[C@@H](CO)C(=O)Nc1ccc2c(c1)Oc1cc(NC(=O)[C@H](CO)NC(=O)[C@@H](N)CCC(N)=O)ccc1C21OC(=O)c2ccccc21` (relative stereo) [GLN--SER*] was tested, and the “MEAN DELTA FL” value ([3]; HIV + PATIENTS) was 13.7 and 12.7 and the “MEAN DELTA FL” value ([3]; NORMALS) was 11.9 and 6.1.

For `CC(C)C[C@H](N)C(=O)NCC(=O)Nc1ccc2c(c1)Oc1cc(NC(=O)CNC(=O)[C@@H](N)CC(C)C)ccc1C21OC(=O)c2ccccc21` [LG], the “enzyme activity, Lymphs” value ([1]; J4 11/21/91 acute leuk.) was 0.16, the “enzyme activity, Lymphs” value ([1]; J4 12/2/91 A L) was 0.18 and the “enzyme activity, Lymphs” value ([1]; J4 12/3/91 acute leuk.) was 0.19. The “enzyme activity, Lymphs” value ([1]; J5 11/27/91 A M L) was 0.23, the “enzyme activity, Lymphs” value ([1]; J19 11/27/91 C L L) was 0.02 and the “enzyme activity, Lymphs” value ([1]; J22 12/2/91 A M L) was 0.02. The “enzyme activity, Lymphs” value ([1]; J22 12/9/91 A M L) was 0.61, the “enzyme activity, Lymphs” value ([1]; N199 normal) was 0.85 and the “enzyme activity, Lymphs” value ([1]; P68 tachycardia) was 0.78. The “enzyme activity, Lymphs” value ([1]; P69 pancreatic CA) was 2.00, the “enzyme activity, Lymphs” value ([1]; P70 cirrhosis/hemobilia) was 0.79 and the “enzyme activity, Lymphs” value ([1]; P71 ac. pyelonephritis) was 0.68. For the same compound, the “enzyme activity, Grans” value ([2]; J4 11/21/91 acute leuk.) was 0.85, the “enzyme activity, Grans” value ([2]; J4 12/2/91 A L) was 0.79 and the “enzyme activity, Grans” value ([2]; N200 normal) was 3.40. The “enzyme activity, Grans” value ([2]; N202 normal) was 2.70, the “enzyme activity, Grans” value ([2]; P70 cirrhosis/hemobilia) was 2.20 and the “enzyme activity, Grans” value ([2]; P71 ac. pyelonephritis) was 4.00. The “aberrant enzyme activity, GRANS” value ([4]; P92 Adenitis) was “.smallcircle”, the “aberrant enzyme activity, GRANS” value ([4]; P96 Viral Syndrome) was “.smallcircle” and the “aberrant enzyme activity, GRANS” value ([4]; P97 Pyelonephritis) was “.smallcircle”. For the same compound, the “aberrant enzyme activity, GRANS” value ([4]; P101 Fever -- Unknown Origin) was “.smallcircle”, the “aberrant enzyme activity, GRANS” value ([4]; P102 UTI) was “.smallcircle” and the “aberrant enzyme activity, LYMPHS” value ([5]; P92 Adenitis) was “.smallcircle”. For the same compound, the “aberrant enzyme activity, LYMPHS” value ([5]; P97 Pyelonephritis) was “.smallcircle”, the “aberrant enzyme activity, LYMPHS” value ([5]; P102 UTI) was “.smallcircle” and the “aberrant enzyme activity, LYMPHS” value ([5]; P103 Viral Syndrome) was “.smallcircle”. The “aberrant enzyme activity, MONOS” value ([6]; P92 Adenitis) was “.smallcircle”, the “aberrant enzyme activity, MONOS” value ([6]; P96 Viral Syndrome) was “.smallcircle” and the “aberrant enzyme activity, MONOS” value ([6]; P97 Pyelonephritis) was “.smallcircle”. The “aberrant enzyme activity, MONOS” value ([6]; P101 Fever -- Unknown Origin) was “.smallcircle” and the “aberrant enzyme activity, MONOS” value ([6]; P103 Viral Syndrome) was “.smallcircle”.

For `CC(C)C[C@H](NC(=O)CN)C(=O)Nc1ccc2c(c1)Oc1cc(NC(=O)[C@H](CC(C)C)NC(=O)CN)ccc1C21OC(=O)c2ccccc21` [GL, (H Gly--Leu)2 Rho 110 .2FTA], the “MEAN DELTA FL” value ([3]; HIV + PATIENTS) was 16.3, the “MEAN DELTA FL” value ([3]; NORMALS) was 9.5 and the “aberrant enzyme activity, GRANS” value ([4]; P92 Adenitis) was “.smallcircle”. The “aberrant enzyme activity, GRANS” value ([4]; P103 Viral Syndrome) was “.smallcircle”, the “aberrant enzyme activity, LYMPHS” value ([5]; P92 Adenitis) was “.smallcircle” and the “aberrant enzyme activity, LYMPHS” value ([5]; P97 Pyelonephritis) was “.smallcircle”. The “aberrant enzyme activity, LYMPHS” value ([5]; P103 Viral Syndrome) was “.smallcircle”, the “aberrant enzyme activity, MONOS” value ([6]; P92 Adenitis) was “.smallcircle” and the “aberrant enzyme activity, MONOS” value ([6]; P97 Pyelonephritis) was “.smallcircle”. For the same compound, the “aberrant enzyme activity, MONOS” value ([6]; P103 Viral Syndrome) was “.smallcircle”.

With `NCC(=O)N1CCC[C@H]1C(=O)Nc1ccc2c(c1)Oc1cc(NC(=O)[C@@H]3CCCN3C(=O)CN)ccc1C21OC(=O)c2ccccc21` [GLY--PRO*] the “MEAN DELTA FL” value ([3]; HIV + PATIENTS) was 21.4, the “MEAN DELTA FL” value ([3]; HIV + PATIENTS, listed as GLY--PRO****) was 18.4 and the “MEAN DELTA FL” value ([3]; NORMALS) was 50.9. The “MEAN DELTA FL” value ([3]; NORMALS, listed as GLY--PRO****) was 46.7.

`C[C@@H](O)[C@H](N)C(=O)N1CCC[C@H]1C(=O)Nc1ccc2c(c1)Oc1cc(NC(=O)[C@@H]3CCCN3C(=O)[C@@H](N)[C@@H](C)O)ccc1C21OC(=O)c2ccccc21` [THR--PRO*] was tested, and the “MEAN DELTA FL” value ([3]; HIV + PATIENTS) was 10.2 and the “MEAN DELTA FL” value ([3]; NORMALS) was 17.3.

`C[C@H](N)C(=O)NCC(=O)Nc1ccc2c(c1)Oc1cc(NC(=O)CNC(=O)[C@H](C)N)ccc1C21OC(=O)c2ccccc21` [ALA--GLY****] was tested, and the “MEAN DELTA FL” value ([3]; HIV + PATIENTS) was 39.9 and 29.7 and the “MEAN DELTA FL” value ([3]; NORMALS) was 48.0 and 31.6.
